From paper PMC7580834, “Inhibition mechanism of naphthylphenylamine derivatives acting on the CDC25B dual phosphatase and analysis of the molecular processes involved in the high cytotoxicity exerted by one selected derivative in melanoma cells” (Journal of Enzyme Inhibition and Medicinal Chemistry, 2020)
“Also recorded” adds a separate entry of the source.

Legend:
[1] = test system: A2058 and A375 melanoma cell lines; set-up: method as in PMID 31294975; details: 10 µM; cited from earlier work
[2] = biological target: T1, CDC25B (Homo sapiens, UniProt P30305); assay: Intrinsic fluorescence quenching of recombinant CDC25B catalytic domain (Stern-Volmer); assay type: binding
T1 sequence (P30305 377-551 isoform P30305-2 limits assumed): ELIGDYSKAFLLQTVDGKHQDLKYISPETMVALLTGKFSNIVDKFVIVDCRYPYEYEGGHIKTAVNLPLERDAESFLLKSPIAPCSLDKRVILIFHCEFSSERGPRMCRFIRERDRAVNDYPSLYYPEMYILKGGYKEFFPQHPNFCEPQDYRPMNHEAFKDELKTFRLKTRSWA
Method: Fluorescence spectra were recorded at 20 °C using a computer-assisted Cary Eclipse spectrofluorimeter (Varian, Palo Alto, CA, USA) equipped with an electronic temperature controller. The excitation wavelength was set at 280 nm and the excitation and emission slits were set at 10 and 20 nm, respectively. A 500 µL final volume of a 0.2 µM solution of CDC25B or CDC25B-C473S dissolved in 20 mM Tris•HCl, pH 7.8, 0.5 mM TCEP was directly prepared in the fluorimetric cuvette in the absence or in the presence of OMFP and/or some NPA derivatives. Serial pre-dilutions of the NPA derivatives or OMFP at increasing concentration were prepared in DMSO or methanol, respectively. Alongside, a convenient amount of the enzyme pre-dilution was prepared just before its usage for the experiment and stored on ice. When the combined effect of NPA derivative and OMFP was investigated, two enzyme pre-dilutions were prepared in the absence or in the presence of 5 µM OMFP. In order to evaluate the specific effect produced by any addition of solvent/ligand on the intrinsic fluorescence of the enzyme, 495 µL of the enzyme pre-dilution were placed in the fluorimetric cuvette and the relative spectrum was recorded; after the addition of 5 µL of each pre-dilution of solvent/ligand and fast mixing, the spectrum was recorded again. This procedure, repeated for each experimental point, allowed a normalisation of the specific effects produced by solvent/ligands. Furthermore, a correction was also applied for the little inner-filter effect due to the absorbance at 280 nm of the NPA derivative used at different concentrations; on the other hand, no correction was necessary for OMFP. All spectra, recorded at a scan speed of 120 nm/min, were normalised and corrected.

[3] = test system: caspase-9 in A375 cells; assay: Caspase-9 fluorimetric activity assay in cell lysates; assay type: cell-based, human; details: 10 µM, 24 h
Method: (§1) The caspase-3 and caspase-9 enzymatic activity was measured by using caspase-3 and -9 fluorimetric assay kits, respectively, according to the manufacturer’s protocol. Briefly, cells were seeded into 75 cm^2 plates (2 × 10^6 cells/plate) and after 24 h treated with 4a or 0.5% (v/v) DMSO for 24 h. At the end of incubation, cells were collected, washed with phosphate-buffered saline constituted by 10 mM Na2HPO4, 2 mM KH2PO4, pH 7.4, supplemented with 137 mM NaCl and 2.7 mM KCl (PBS), and finally lysed at 4 °C in the cell lysis buffer. Cell lysates were incubated with 50 µM DEVD-AFC or LEHD-AFC substrates at 37 °C for 2 h, to detect caspase-3 or caspase-9 activity, respectively, using a Cary Eclipse spectrofluorimeter. Excitation and emission wavelengths were set at 400 nm and 505 nm, respectively; both excitation and emission slits were set at 10 nm.

[4] = test system: caspase-9 in A2058 cells; assay: as above; assay type: cell-based, human; details: 10 µM, 24 h
Method: as §1

KSV (Stern-Volmer constant) ([2]; 0.2 µM wild-type CDC25B, emission 357 nm, 20 °C, no OMFP): 0.010 µM⁻¹
Kd ([2]; reciprocal of KSV, inhibitor concentration leading to 50% quenching of CDC25B emission, read-out: K′D of the complex, Free CDC25B•inhibitor): > 50 µM
SMILES: CCOC(=O)c1cccc(Nc2cc(OC)cc3ccccc23)c1 [4a]
cell cycle of melanoma cells [1]: arrest of cells in G2/M phase; also recorded: arrest in the G2/M phase; also recorded: arrested the cell cycle of melanoma cells in G2/M phase
cell growth of melanoma cells [1]: reduced the cell growth rate; also recorded: significantly reduced; also recorded: significant antiproliferative action
pCDK1 protein levels [1]: increase
enzymatic activity of caspase-9 [3]: statistically significant increase
enzymatic activity of caspase-9 [4]: statistically significant increase
